Measured values published in patent publication US20240287089A1, “Preparation and Uses of 7-Azaindenoisoquinolines” (Purdue Research Foundation, priority 0001, published 2024).

Experiments:
NCI-60 cancer cell lines = assay: NCI-60 cytotoxicity assay, MGM; format: cell-based; conditions: Homo sapiens; entire panel of NCI-60 cancer cell lines; read-out: MGM (approximate average of GI50 values across the NCI-60 panel)
Description: (§1) The antiproliferative activities of the indenoisquinoline compounds are determined in the NCI-60 cancer cell lines of the National Cancer Institute Developmental Therapeutics Program (NCI-DTP). […] Cancer cells are incubated with the test compounds at five concentrations ranging from 100 μM to 10 nM for 48 h. After the treated cancer cells are stained with sulforhodamine B dye, the percentage growth is plotted as a function of the common logarithm of the tested compound concentration. […] The approximate average of GI50 values across the entire panel of NCI-60 cancer cell lines for each compound is recorded as the MGM value.
(§2) NCI-60 Cytotoxicity Assay. Compounds were submitted to the National Cancer Institute Developmental Therapeutic Program to determine their growth-inhibitory potentials in NCI-60 cell lines. All compounds satisfied the pre-screening proceeded into the 5-dose cell viability assay, in which cells were treated for 48 h at 5 dosages ranging from 100 μM to 10 nM.

SF-539 (CNS) = assay: NCI-60 cytotoxicity assay; format: cell-based; conditions: Homo sapiens; SF-539 CNS; 48 h, sulforhodamine B; read-out: Comparative Cytotoxicity GI50, CNS SF-539
Description: as §1, §2

HCT-116 (Colon) = assay: NCI-60 cytotoxicity assay; format: cell-based, human; conditions: Homo sapiens; HCT-116 colon; 48 h, sulforhodamine B; read-out: Comparative Cytotoxicity GI50, Colon HCT-116
Description: as §1, §2

MCF7 (Breast) = assay: NCI-60 cytotoxicity assay; format: cell-based, human; conditions: Homo sapiens; MCF7 breast; 48 h, sulforhodamine B; read-out: Comparative Cytotoxicity GI50, Breast MCE7
Description: as §1, §2

UACC-62 (Melanoma) = assay: NCI-60 cytotoxicity assay; format: cell-based, human; conditions: Homo sapiens; UACC-62 melanoma; 48 h, sulforhodamine B; read-out: Comparative Cytotoxicity GI50, Melanoma UACC-62
Description: as §1, §2

OVCAR-3 (Ovarian) = assay: NCI-60 cytotoxicity assay; format: cell-based, human; conditions: Homo sapiens; OVCAR-3 ovarian; 48 h, sulforhodamine B; read-out: Comparative Cytotoxicity GI50, Ovarian OVCAR-3
Description: as §1, §2

SN12C (Renal) = assay: NCI-60 cytotoxicity assay; format: cell-based, human; conditions: Homo sapiens; SN12C renal; 48 h, sulforhodamine B; read-out: Comparative Cytotoxicity GI50, Renal SN12C
Description: as §1, §2

HOP-62 (Lung) = assay: NCI-60 cytotoxicity assay; format: cell-based, human; conditions: Homo sapiens; HOP-62 lung; 48 h, sulforhodamine B; read-out: Comparative Cytotoxicity GI50, Lung HOP-62
Description: as §1, §2

DU-145 (Prostate) = assay: NCI-60 cytotoxicity assay; format: cell-based, human; conditions: Homo sapiens; DU-145 prostate; 48 h, sulforhodamine B; read-out: Comparative Cytotoxicity GI50, Prostate DU-145
Description: as §1, §2

[1] = Brain penetration and plasma/brain pharmacokinetics in combination with Temodar or Lynparza
Description: A similar analysis was performed with LMP744 and LMP400 in combination with Temodar and Lynparza.

Caco-2 cells = assay: Caco-2 permeability; format: in vitro ADME; conditions: for Efflux Ratio / Recovery (%)AP-BL / Recovery (%)BL-AP: Caco-2; for Papp (A→B) / Papp (B→A): Caco-2, 5 μM, 2 h
Description: Caco-2 Permeability Studies. The Caco-2 plate was removed from the incubator and washed twice with pre-warmed HBSS (10 mM HEPES, pH 7.4), and then incubated at 37° C. for 30 min. The stock solutions of controls compounds were diluted in DMSO to get 1 mM solutions and then diluted with HBSS (10 mM HEPES, pH 7.4) to get 5 μM working solutions. The stock solutions of the test compounds were diluted in DMSO to get 1 mM solutions and then diluted with HBSS (10 mM HEPES, pH 7.4) to get 5 μM working solutions. The final concentration of DMSO in the incubation system was 0.5%. To determine the rate of drug transport in the apical to basolateral direction, 75 μL of 5 μM working solutions of test compounds was added to the Transwell insert (apical compartment) and the wells in the receiver plate (basolateral compartment) were filled with 235 μL of HBSS (10 mM HEPES, pH 7.4). To determine the rate of drug transport in the basolateral to apical direction, 235 μL of 5 μM working solutions of test compounds were to the receiver plate wells (basolateral compartment) and then the Transwell inserts (apical compartment) were filled with 75 μL of HBSS (10 mM HEPES, pH 7.4). Time 0 samples were prepared by transferring 50 μL of 5 μM working solution to wells of the 96-deepwell plate, followed by the addition of 200 μL cold methanol containing appropriate internal standards (IS). The plates were incubated at 37° C. for 2 h. […] An aliquot of 100 μL of the supernatant was mixed with an appropriate volume of ultra-pure water before LC-MS/MS analysis. To determine the Lucifer Yellow leakage after 2 h transport period, stock solution of Lucifer yellow was prepared in ultra-pure water and diluted with HBSS (10 mM HEPES, pH 7.4) to reach the final concentration of 100 μM and then 100 μL of the Lucifer yellow solution was added to each Transwell insert (apical compartment), followed by filling the wells in the receiver plate (basolateral compartment) with 300 μL of HBSS (10 mM HEPES, pH 7.4). The plates were incubated at 37° C. for 30 minutes. Samples (80 μL) were removed directly from the apical and basolateral wells (using the basolateral access holes) and transferred to wells of new 96 wells plates.

[2] = Lynparza 100 mg/kg PO + LMP400 10 mg/kg IV, 0.5 h
[3] = Lynparza 100 mg/kg PO + LMP400 10 mg/kg IV, 1 h
[4] = Lynparza 100 mg/kg PO + LMP400 10 mg/kg IV, 2 h
[5] = Lynparza 100 mg/kg PO + LMP400 10 mg/kg IV, 4 h
[6] = Lynparza 100 mg/kg PO + LMP400 10 mg/kg IV, 8 h
[7] = Lynparza 100 mg/kg PO + LMP400 10 mg/kg IV, 24 h
[8] = Lynparza 100 mg/kg PO + LMP744 10 mg/kg IV, 0.25 h
[9] = Lynparza 100 mg/kg PO + LMP744 10 mg/kg IV, 0.5 h
[10] = Lynparza 100 mg/kg PO + LMP744 10 mg/kg IV, 1 h
[11] = Lynparza 100 mg/kg PO + LMP744 10 mg/kg IV, 2 h
[12] = Lynparza 100 mg/kg PO + LMP744 10 mg/kg IV, 4 h
[13] = Lynparza 100 mg/kg PO + LMP744 10 mg/kg IV, 8 h
[14] = Lynparza 100 mg/kg PO + LMP744 10 mg/kg IV, 24 h
[15] = Temador 125 mg/kg PO + LMP400 10 mg/kg IV, 1 h
[16] = Temador 125 mg/kg PO + LMP400 10 mg/kg IV, 2 h
[17] = Temador 125 mg/kg PO + LMP400 10 mg/kg IV, 4 h
[18] = Temador 125 mg/kg PO + LMP400 10 mg/kg IV, 8 h
[19] = Temador 125 mg/kg PO + LMP400 10 mg/kg IV, 24 h
[20] = Temador 125 mg/kg PO + LMP744 20 mg/kg IV, 0.25 h
[21] = Temador 125 mg/kg PO + LMP744 20 mg/kg IV, 0.5 h
[22] = Temador 125 mg/kg PO + LMP744 20 mg/kg IV, 1 h
[23] = Temador 125 mg/kg PO + LMP744 20 mg/kg IV, 2 h
[24] = Temador 125 mg/kg PO + LMP744 20 mg/kg IV, 4 h
[25] = Temador 125 mg/kg PO + LMP744 20 mg/kg IV, 8 h
[26] = Temador 125 mg/kg PO + LMP744 20 mg/kg IV, 24 h

CCNCCCn1c2c(c3cc(OC)c(OC)cc3c1=O)C(=O)c1cc(OC)cnc1-2 [A9]
GI50 (NCI-60 cancer cell lines): 1540 nM | GI50 (SF-539 (CNS)): 800 nM | GI50 (HCT-116 (Colon)): 420 nM | GI50 (MCF7 (Breast)): 160 nM | GI50 (UACC-62 (Melanoma)): 700 nM | GI50 (OVCAR-3 (Ovarian)): 3600 nM | GI50 (SN12C (Renal)): 1440 nM | GI50 (HOP-62 (Lung)): 320 nM | GI50 (DU-145 (Prostate)): 2160 nM

COc1cc2c3c(n(CCCNCC4CC4)c(=O)c2cc1OC)-c1cc2c(cc1C3=O)OCO2 [A1]
GI50 (NCI-60 cancer cell lines): 1320 nM | GI50 (SF-539 (CNS)): 760 nM | GI50 (HCT-116 (Colon)): 1140 nM | GI50 (MCF7 (Breast)): 95 nM | GI50 (UACC-62 (Melanoma)): 2860 nM | GI50 (OVCAR-3 (Ovarian)): 1420 nM | GI50 (SN12C (Renal)): 1370 nM | GI50 (HOP-62 (Lung)): 350 nM | GI50 (DU-145 (Prostate)): 760 nM

O=C(c1cc(Cc2n[nH]c(=O)c3ccccc23)ccc1F)N1CCN(C(=O)C2CC2)CC1 [Lynparza]
Brain Conc ([1]; Lynparza 100 mg/kg PO + LMP400 10 mg/kg IV, 0.25 h): 0.0131 ± 0.00699 µM | Brain Conc [1, 2]: 0.03336 ± 0.01887 µM | Plasma Conc [1, 2]: 1.384 ± 0.929 µM | Brain Conc [1, 3]: 0.05003 ± 0.00979 µM | Plasma Conc [1, 3]: 2.644 ± 0.762 µM | Brain Conc [1, 4]: 0.03044 ± 0.01589 µM | Plasma Conc [1, 4]: 1.637 ± 1.051 µM | Brain Conc [1, 5]: 0.01839 ± 0.00859 µM | Plasma Conc [1, 5]: 0.755 ± 0.46 µM | Brain Conc [1, 6]: BLOQ | Plasma Conc [1, 6]: 0.166 ± 0.208 µM | Brain Conc [1, 7]: BLOQ | Plasma Conc [1, 7]: BLOQ | Brain Conc [1, 8]: BLOQ | Plasma Conc [1, 8]: 0.345 ± 0.101 µM | Brain Conc [1, 9]: 0.0121 ± 0.00053 µM | Brain/Plasma Conc Ratio [1, 9]: 0.02 | Plasma Conc [1, 9]: 0.555 ± 0.0934 µM | Brain Conc [1, 10]: 0.0141 ± 0.0073 µM | Brain/Plasma Conc Ratio [1, 10]: 0.01 | Plasma Conc [1, 10]: 0.961 ± 0.189 µM | Brain Conc [1, 11]: 0.0449 ± 0.02008 µM | Plasma Conc [1, 11]: 1.61 ± 0.968 µM | Brain Conc [1, 12]: 0.0254 ± 0.00652 µM | Plasma Conc [1, 12]: 1.11 ± 0.25 µM | Brain Conc [1, 13]: BLOQ | Plasma Conc [1, 13]: 0.314 ± 0.185 µM | Brain Conc [1, 14]: BLOQ | Plasma Conc [1, 14]: BLOQ | concentration at 0.25 h ([1]; mouse, plasma, oral, Plasma Conc, Lynparza 100 mg/kg PO + LMP400 10 mg/kg IV, 0.25 h): 0.506 ± 0.423 µM

CC(C)NCC(O)COc1cccc2ccccc12 (centres unmarked) [Propranolol]
Efflux Ratio (Caco-2 cells): 0.70 | Recovery (%)AP-BL (Caco-2 cells): 80.74% | Recovery (%)BL-AP (Caco-2 cells): 92.73% | Papp (A→B) (Caco-2 cells): 25.34 10^−6, cm/s | Papp (B→A) (Caco-2 cells): 17.63 10^−6, cm/s

COc1cc2nc(N3CCN(C(=O)c4ccco4)CC3)nc(N)c2cc1OC [Prazosin]
Efflux Ratio (Caco-2 cells): 3.39 | Recovery (%)AP-BL (Caco-2 cells): 79.64% | Recovery (%)BL-AP (Caco-2 cells): 94.99% | Papp (A→B) (Caco-2 cells): 9.28 10^−6, cm/s | Papp (B→A) (Caco-2 cells): 31.47 10^−6, cm/s

C[C@H]1O[C@@H](O[C@H]2[C@@H](O)C[C@H](O[C@H]3[C@@H](O)C[C@H](O[C@H]4CC[C@@]5(C)[C@H](CC[C@@H]6[C@@H]5C[C@@H](O)[C@]5(C)[C@@H](C7=CC(=O)OC7)CC[C@]65O)C4)O[C@@H]3C)O[C@@H]2C)C[C@H](O)[C@@H]1O [Digoxin]
Efflux Ratio (Caco-2 cells): 25.25 | Recovery (%)AP-BL (Caco-2 cells): 88.64% | Recovery (%)BL-AP (Caco-2 cells): 106.70% | Papp (A→B) (Caco-2 cells): 0.74 10^−6, cm/s | Papp (B→A) (Caco-2 cells): 18.71 10^−6, cm/s

Cn1nnc2c(C(N)=O)ncn2c1=O [Temadar]
Plasma Conc ([1]; Temador 125 mg/kg PO + LMP400 10 mg/kg IV, 0.25 h): 311.591 ± 40.73 µM | Brain Conc [1, 15]: 102.567 ± 16.241 µM | Brain/Plasma Conc Ratio [1, 15]: 0.50 | Brain/Plasma Conc Ratio [1, 16]: 0.56 | Plasma Conc [1, 16]: 80.639 ± 5.808 µM | Brain Conc [1, 17]: 4.739 ± 0.585 µM | Plasma Conc [1, 17]: 10.345 ± 0.724 µM | Brain Conc [1, 18]: 1.236 ± 0.654 µM | Brain/Plasma Conc Ratio [1, 18]: 0.38 | Plasma Conc [1, 18]: 3.295 ± 1.528 µM | Brain Conc [1, 19]: 0.122 ± 0.004 µM | Brain/Plasma Conc Ratio [1, 19]: 0.01 | Plasma Conc [1, 19]: 10.009 ± 5.943 µM | Brain Conc [1, 20]: 123.222 ± 49.748 µM | Brain/Plasma Conc Ratio [1, 20]: 0.33 | Plasma Conc [1, 20]: 376.314 ± 182.744 µM | Brain Conc [1, 21]: 83.539 ± 43.505 µM | Brain/Plasma Conc Ratio [1, 21]: 0.23 | Plasma Conc [1, 21]: 370.863 ± 119.965 µM | Brain/Plasma Conc Ratio [1, 22]: 0.46 | Plasma Conc [1, 22]: 357.779 ± 86.447 µM | Brain Conc [1, 23]: 96.544 ± 15.254 µM | Brain/Plasma Conc Ratio [1, 23]: 0.15 | Brain Conc [1, 24]: 12.75 ± 2.849 µM | Brain/Plasma Conc Ratio [1, 24]: 0.47 | Plasma Conc [1, 24]: 27.155 ± 4.732 µM | Brain Conc [1, 25]: 5.765 ± 3.855 µM | Brain/Plasma Conc Ratio [1, 25]: 0.57 | Plasma Conc [1, 25]: 10.048 ± 6.715 µM | Brain Conc [1, 26]: 0.914 ± 0.532 µM | Brain/Plasma Conc Ratio [1, 26]: 0.60 | concentration at 0.25 h ([1]; mouse, brain, oral, Brain Conc, Temador 125 mg/kg PO + LMP400 10 mg/kg IV, 0.25 h): 86.6 ± 10.4 µM | concentration at 0.5 h ([1]; mouse, brain, oral, Brain Conc, Temador 125 mg/kg PO + LMP400 10 mg/kg IV, 0.5 h): 47.4 ± 24.5 µM | concentration at 1 h ([1]; mouse, brain, oral, Brain Conc, Temador 125 mg/kg PO + LMP744 20 mg/kg IV, 1 h): 154 ± 38.8 µM | concentration at 0.5 h ([1]; mouse, plasma, oral, Plasma Conc, Temador 125 mg/kg PO + LMP400 10 mg/kg IV, 0.5 h): 389 ± 66 µM | concentration at 1 h ([1]; mouse, plasma, oral, Plasma Conc, Temador 125 mg/kg PO + LMP400 10 mg/kg IV, 1 h): 205 ± 27.3 µM | concentration at 2 h ([1]; mouse, plasma, oral, Plasma Conc, Temador 125 mg/kg PO + LMP744 20 mg/kg IV, 2 h): 552 ± 309 µM | concentration at 24 h ([1]; mouse, plasma, oral, Plasma Conc, Temador 125 mg/kg PO + LMP744 20 mg/kg IV, 24 h): 1.58 ± 0.509 µM
